Data on 15 compounds can be found in article PMC4138406, “In vitro and in vivo anti-malarial activity of limonoids isolated from the residual seed biomass from Carapa guianensis (andiroba) oil production” (Malaria Journal, 2014).

Molecules are shown by their SMILES. Converted amounts (≈) assume the structure as drawn. “And” between values parts separate entries of the source, which are not always exact repeats. Equal values may be shown once. Where a name gives a salt, the structure may show the parent alone. Read-outs that look alike come from different tables or passages of the source.

Series [1] relates to FCR-3 strain of P. falciparum. Also noted: method as in doi:10.1016/j.tet.2011.12.076. The note with it: read-out: IC50 against the FCR-3 strain of P. falciparum; cited from earlier work.
The next series has as its system P. berghei strain ANKA. The conditions noted are these: cited from earlier work.
The subject of series [2] is Plasmodium falciparum K1 strain. Nature of the series: In vitro anti-plasmodial assay (micro test), growth inhibition of P. falciparum K1. Type of series: cell-based. The note with it: for IC50: Plasmodium falciparum, read-out: IC50 Plasmodium falciparum K1; for Result Plasmodium falciparum K1: activity class from IC50, K1 strain. On the procedure:
Briefly, this procedure involved preparing 5 mg/mL stock solutions of each compound in dimethyl sulfoxide (DMSO). The stock solutions were diluted to provide test solutions having concentrations in the range 0.13-100 μg/mL. Test solutions were transferred to 96-well test plates containing parasitized red blood cells with initial 2% haematocrit and 1% parasitaemia. Each sample was evaluated in duplicate and the test plate was incubated for 48 h at 37°C. After incubation, quantification of parasites was achieved by optical microscopy on blood smears from each well [27].

The next series has as its system MRC-5 human fibroblasts. Nature of the series: Cytotoxicity assay (AlamarBlue) on MRC-5 human fibroblasts. Type of series: cell-based. How it is done:
The MRC-5 cell line of human fibroblasts was grown in Dulbecco’s Modified Eagle’s Medium (DMEM) supplemented with 10% fetal bovine serum, 2 mM glutamine, 100 μg/mL streptomycin and 100 U/mL penicillin, and incubated at 37°C with a 5% atmosphere of CO2. For assays, the cells were plated in 96-well plates (2.5 × 10^4 cells/well) and the AlamarBlue™ assay was performed using a previously described procedure. After incubation for 24 h, compounds 1-5 were individually dissolved in DMSO and the resulting solutions were diluted in culture medium. The resulting dilute solutions of each sample were added to wells at final (well) concentrations of 1.56-100 μg/mL. Control groups had final well concentrations of 0.1% DMSO. The plates were further incubated for 48 h. 3 h before the end of the incubation period, AlamarBlue™ (10 μL) was added to each well. The fluorescent signal was monitored with a multiplate reader using 530-560 nm excitation and 590 nm emission wavelengths.
Background: Alamar Blue is a resazurin reagent that responds to reducing activity.

The subject of series [3] is K1 and FCR-3 strains of P. falciparum. The note with it: earlier studies; read-out: IC50 against the K1 and FCR-3 strains of P. falciparum; cited from earlier work.
In series [4] the test system is Plasmodium berghei NK65 strain. Briefly: Peters 4-day suppressive test in infected BALB/c mice. Type of series: in vivo, Plasmodium berghei in BALB/c mice. On the procedure:
Adult BALB/c mice (22 ± 3 g weight) were used for the in vivo anti-malarial tests and received water and food ad libitum. In vivo tests were performed using ‘Guidelines for Ethical Conduct in The Care and Use of Animals of the National Institute for Amazon Research (INPA)’.
Limonoids 3 and 4 were assayed for in vivo anti-malarial activity in the Peters 4-day suppressive test against the Plasmodium berghei NK65 strain in BALB/c female mice, each inoculated with 1 × 10^5 parasitized red blood cells. The mice were randomly divided into groups of five individuals and individual […] evaluation of parasitaemia versus controls (negative control groups were treated with 2% DMSO vehicle and positive control groups with chloroquine) on days 5 and 7 following an established procedure. Mortality was monitored in all groups for four weeks after inoculation. Two independent in vivo experiments were performed.

Series [5] concerns W2 strain of P. falciparum. The note with it: cited from earlier work.
Series [6] concerns W2, D6 and FCR-3 strains of P. falciparum. More on the design: method as in doi:10.1016/j.tet.2011.12.076, PMID 9134742, doi:10.1111/j.1744-7348.2003.tb00279.x. The conditions noted are these: range over strains; read-out: IC50 against W2, D6 and FCR-3 strains of P. falciparum; cited from earlier work.
A further series concerns Plasmodium vinckei. More on the design: method as in PMID 23433124. The note with it: cited from earlier work.
The test system of another series is P. falciparum D6. More on the design: method as in PMID 9134742. The note with it: cited from earlier work.
On the set-up of series [7]: method as in PMID 12570769. The conditions noted are these: cited from earlier work.
The mark [8] stands for this setting: MRC5, MRC-5, 48 h, read-out: IC50 Human fibroblasts MRC-5.
Where [9] appears, read: 50 mg/kg/day, vs untreated controls.
Where [10] appears, read: 100 mg/kg/day, vs untreated controls.

What is called IC50 is the concentration at which inhibition is half-maximal. For the compound `CC(=O)O[C@@H]1[C@H](O)C2C(C)(C)C(=O)C=C[C@]2(C)C2CC[C@@]3(C)[C@H](c4ccoc4)OC(=O)[C@H]4O[C@]43[C@@]21C` (stereo partly drawn) [compound 8, 6α-hydroxygedunin], the IC50 in [1] is 90 µM.
For `C=C[C@H]1C[N@@]2CC[C@H]1C[C@H]2[C@H](O)c1ccnc2ccc(OC)cc12` [quinine], the “median effective dose (ED50)” value in the series with P. berghei strain ANKA (mice infected with P. berghei strain ANKA) is 34 mg/kg/day.
In the case of `C=C1[C@@H]([C@@]2(C)C=CC(=O)C(C)(C)[C@@H]2CC(=O)OC)CC[C@@]2(C)[C@H](c3ccoc3)OC(=O)[C@H]3O[C@]132` [compound 2, andirobin], the half-inhibitory concentration (IC50) is 15.3 µM in series [2] (K1 strain, 48 h incubation) and greater than 203 µM with MRC-5 human fibroblasts (setting [8]). Further, the “Result Plasmodium falciparum K1” value in series [2] is “MA (5 < IC50 ≤ 20 μM = moderately active (MA))”.
Consider `CC1(C)C(=O)C=C[C@@]2(C)C1CC(=O)[C@]1(C)C2CC[C@@]2(C)[C@H](c3ccoc3)OC(=O)[C@H]3O[C@]321` (stereo partly drawn) [compound 4, 7-deacetoxy-7-oxogedunin], for which the IC50 is 2.5 to 4.1 µM in series [3]; 20.7 µM in [2] (K1, 48 h); greater than 22.8 µM in series [5] (read-out: IC50 against the W2 strain of P. falciparum); 108 µM with MRC-5 human fibroblasts (MRC5, 48 h, read-out: IC50 Human fibroblasts MRC-5); 47.3 µg/mL in the series with MRC-5 human fibroblasts (MRC5, 48 h, read-out: IC50 MRC-5 cells). Further, in series [2], the “Result Plasmodium falciparum K1” value was “I (IC50 > 20 μM = inactive (I))”. In addition, the results for the “Average survival time ± SD Oral” value in [4] (50 mg/kg/day) and in [4] (100 mg/kg/day) were 20 ± 2 days and 21 ± 3 days, respectively. Also, the “% Parasite inhibition Oral 5th day” value in series [4] (setting [9]) is 19.3%; in [4] (setting [10]), 40% and 40.3%. The “% Parasite inhibition Oral 7th day” value in series [4] (50 mg/kg/day) was 0%; in series [4] (100 mg/kg/day), 28.9%. The entries for the “Average survival time ± SD Subcutaneous” value in series [4] (50 mg/kg/day) and in series [4] (100 mg/kg/day) were 21 ± 4 days and 22 ± 2 days, respectively. The “% Parasite inhibition Subcutaneous 5th day” value is listed as 29.2% in series [4] (50 mg/kg/day) and 38.6% in series [4] (100 mg/kg/day). Moreover, the “% Parasite inhibition Subcutaneous 7th day” value in series [4] (50 mg/kg/day) came out at 0%; in series [4] (100 mg/kg/day), 21.7%.
In the case of `C=C[C@H]1C[N@@]2CC[C@H]1C[C@H]2[C@H](O)c1ccnc2ccc(OC)cc12` [quinine sulfate, reference compound], the concentration for half-maximal inhibition (IC50) in series [2] (K1 strain, 48 h incubation) was 0.3 µM. Moreover, the “Result Plasmodium falciparum K1” value in [2] is “A (0.1 < IC50 ≤ 5 μM = active (A))”.
Regarding `CC(=O)O[C@@H]1C2C(C)(C)C(=O)C=C[C@]2(C)C2CC[C@@]3(C)[C@H](c4ccoc4)C(=O)[C@H]4O[C@]43[C@]2(C)[C@@H]1OC(C)=O` (stereo partly drawn) [compound 1, 6α-acetoxyepoxyazadiradione], the half-maximal inhibitory concentration (IC50) in [2] (K1 strain, 48 h incubation) is 15.4 µM; in the series with MRC-5 human fibroblasts (setting [8]) it was greater than 191 µM. For the same compound, the “Result Plasmodium falciparum K1” value in series [2] is on record as “MA (5 < IC50 ≤ 20 μM = moderately active (MA))”.
For the compound `CO[C@@H]1CC2C(C)(C)C(=O)C=C[C@]2(C)C2CC[C@@]3(C)[C@H](c4ccoc4)OC(=O)[C@H]4O[C@]43[C@@]21C` (stereo partly drawn) [compound 10, 7-deacetyl-7-O-methylgedunin], the “inhibition of parasitaemia of P. berghei ANKA in mice” value in the series on P. berghei strain ANKA (oral, 50 mg/kg/day) was 68%.
Turning to `CC(=O)O[C@@H]1C2C(C)(C)C(=O)C=C[C@]2(C)C2CC[C@@]3(C)[C@H](c4ccoc4)OC(=O)[C@H]4O[C@]43[C@]2(C)[C@@H]1O` (stereo partly drawn) [compound 7, andirolide H], in series [1], the IC50 was 4 µM.
As to `CC1(C)C(=O)C=C[C@@]2(C)C1[C@@H](O)[C@@H](O)[C@]1(C)C2CC[C@@]2(C)[C@H](c3ccoc3)OC(=O)[C@H]3O[C@]321` (stereo partly drawn) [compound 5, 6α-hydroxydeacetylgedunin], the IC50 is 5 µM in series [2] (K1 strain, 48 h incubation) and greater than 219 µM in the series on MRC-5 human fibroblasts (setting [8]). In addition, the “Result Plasmodium falciparum K1” value in series [2] is on record as “A (0.1 < IC50 ≤ 5 μM = active (A))”.
Take `CC(=O)O[C@@H]1C2C(C)(C)C(=O)C=C[C@]2(C)C2CC[C@@]3(C)[C@H](c4ccoc4)OC(=O)[C@H]4O[C@]43[C@]2(C)[C@@H]1OC(C)=O` (stereo partly drawn) [compound 3, 6α-acetoxygedunin]: the half-maximal inhibitory concentration (IC50) in series [2] (K1 strain, 48 h incubation) was determined as 7 µM. Further, in series [2], the “Result Plasmodium falciparum K1” value is “MA (5 < IC50 ≤ 20 μM = moderately active (MA))”. Moreover, in series [4] (50 mg/kg/day), the “Average survival time ± SD Oral” value was 20 ± 3 days, the “% Parasite inhibition Oral 7th day” value stood at 34.7%, the “Average survival time ± SD Subcutaneous” value was 21 ± 2 days and the “% Parasite inhibition Subcutaneous 5th day” value is recorded as 34.4%. In addition, the “% Parasite inhibition Subcutaneous 7th day” value in series [4] (50 mg/kg/day) came to 16.8%. For the same compound, in series [4] (setting [9]), the “% Parasite inhibition Oral 5th day” value was 40% and 40.2%. For the same compound, in series [4] (100 mg/kg/day), the “Average survival time ± SD Oral” value was determined as 24 ± 3 days, the “% Parasite inhibition Oral 7th day” value is 46.3%, the “Average survival time ± SD Subcutaneous” value is 22 ± 4 days and the “% Parasite inhibition Subcutaneous 5th day” value came to 44.2%. In series [4] (100 mg/kg/day), the “% Parasite inhibition Subcutaneous 7th day” value is 30.4%. In [4] (setting [10]), the “% Parasite inhibition Oral 5th day” value was 66% and 65.7%. For the same compound, the IC50 in series [1] was 2.8 µM. Also, the IC50 with MRC-5 human fibroblasts (setting [8]) is greater than 185 µM.
As to `C=C1[C@@H]2CC[C@@]3(C)[C@H](c4ccoc4)OC(=O)C[C@]13O[C@H]1CC(=O)C(C)(C)[C@H](CC(=O)OC)[C@]12C` [methyl angolensate], the IC50 in [1] is 12 to 15 µM.
For the compound `CC(=O)O[C@@H]1C[C@H]2C(C)(C)C(=O)C=C[C@]2(C)[C@H]2CC[C@@]3(C)[C@H](c4ccoc4)OC(=O)[C@H]4O[C@]43[C@@]21C` [compound 6, Gedunin], the IC50 in series [6] was 0.4 to 2.5 µM. Besides, in the series on P. berghei strain ANKA (oral doses of 25 or 100 mg/kg/day), the “suppression of P. berghei in mice” value is given as “did not suppress”.
For the compound `C[C@H]1[C@H](OC(=O)CCC(=O)[O-])O[C@@H]2O[C@@]3(C)CC[C@H]4[C@H](C)CC[C@@H]1[C@@]24OO3.[Na+]` [sodium artesunate], the “doses at which infected mice exhibit recrudescence” value in the series with Plasmodium vinckei is reported as less than 80 mg/kg/day.
On to `CC1(C)C(=O)C=C[C@@]2(C)C1C[C@@H](O)[C@]1(C)C2CC[C@@]2(C)[C@H](c3ccoc3)OC(=O)[C@H]3O[C@]321` (stereo partly drawn) [compound 9, 7-deacetylgedunin], for which the “IC50 against D6” value in the series with P. falciparum D6 (D6) was 2.6 µg/mL (≈ 5.9 µM). Also, in the series with P. falciparum D6 (D6 and W2, compared to gedunin), the “times less in vitro activity than gedunin” value is given as “about 65 times”. Moreover, the “stability under physiologic conditions found in mice” value in [7] (physiologic conditions) was “unstable”. Moreover, the “stability under simulated gastric (low pH) conditions” value in [7] (simulated gastric (low pH)) was “low stability”. For the same compound, the “IC50 against W2” value in [5] is 1.3 µg/mL (≈ 2.95 µM).
Take `CCN(CC)CCCC(C)Nc1ccnc2cc(Cl)ccc12` (stereo not drawn) [chloroquine diphosphate, reference compound]: the 50% inhibitory concentration (IC50) in series [2] (K1, 48 h) is 0.33 µM. The “Result Plasmodium falciparum K1” value in series [2] is “A (0.1 < IC50 ≤ 5 μM = active (A))”. For the same compound, in series [4] (5 mg/kg/day), the “Average survival time ± SD Oral” value was greater than 40 days, the “% Parasite inhibition Oral 5th day” value turned out to be 100%, the “% Parasite inhibition Oral 7th day” value is on record as 98% and the “Average survival time ± SD Subcutaneous” value was greater than 40 days. Further, in series [4] (5 mg/kg/day), the “% Parasite inhibition Subcutaneous 5th day” value is recorded as 99% and the “% Parasite inhibition Subcutaneous 7th day” value worked out at 99%.
